Experimental data taken from the NIST ThermoML archive (doi:10.1016/j.jct.2006.09.012).
Values joined by “and” are separate entries in the source; they are usually repeats but may differ in a detail not shown here. Identical values can stand only once. ± gives the expanded uncertainty stated by the source.

Conditions: Gas, Buoyancy - hydrostatic balance with magnetic suspension - two sinkers

[He] [helium]
Conditions	mass density
273.16 K, 31577 kPa	47.957 ± 0.033 kg/m3 and 47.9575 ± 0.033 kg/m3
273.16 K, 31578 kPa	47.9581 ± 0.033 kg/m3 and 47.9577 ± 0.033 kg/m3
273.16 K, 31775 kPa	48.2167 ± 0.033 kg/m3
273.16 K, 31776 kPa	48.2177 ± 0.033 kg/m3
273.16 K, 31777 kPa	48.2188 ± 0.033 kg/m3
273.16 K, 31778 kPa	48.22 ± 0.033 kg/m3
273.16 K, 31779 kPa	48.2215 ± 0.033 kg/m3
273.16 K, 31780 kPa	48.2235 ± 0.033 kg/m3
273.16 K, 31865 kPa	48.3344 ± 0.031 kg/m3 and 48.3352 ± 0.031 kg/m3
273.16 K, 31866 kPa	48.3358 ± 0.031 kg/m3
273.16 K, 31867 kPa	48.3368 ± 0.031 kg/m3 and 48.3375 ± 0.031 kg/m3
273.16 K, 32210 kPa	48.7873 ± 0.032 kg/m3
273.16 K, 32211 kPa	48.788 ± 0.032 kg/m3
273.16 K, 32212 kPa	48.7903 ± 0.032 kg/m3 and 48.7886 ± 0.032 kg/m3
273.16 K, 32213 kPa	48.7913 ± 0.032 kg/m3
273.16 K, 37198 kPa	55.185 ± 0.041 kg/m3
273.16 K, 37199 kPa	55.1865 ± 0.041 kg/m3
273.16 K, 37200 kPa	55.1874 ± 0.041 kg/m3
273.16 K, 37201 kPa	55.1885 ± 0.041 kg/m3 and 55.1895 ± 0.041 kg/m3
273.16 K, 37514 kPa	55.5816 ± 0.041 kg/m3
273.16 K, 37515 kPa	55.5829 ± 0.041 kg/m3
273.16 K, 37517 kPa	55.5843 ± 0.041 kg/m3
273.16 K, 37518 kPa	55.5858 ± 0.041 kg/m3
273.16 K, 37520 kPa	55.5878 ± 0.041 kg/m3
273.16 K, 37531 kPa	55.6035 ± 0.041 kg/m3
273.16 K, 37536 kPa	55.6095 ± 0.041 kg/m3
273.16 K, 37537 kPa	55.6109 ± 0.041 kg/m3
273.16 K, 37539 kPa	55.6125 ± 0.041 kg/m3
273.16 K, 37540 kPa	55.6136 ± 0.041 kg/m3
273.16 K, 38114 kPa	56.3321 ± 0.042 kg/m3 and 56.3327 ± 0.042 kg/m3
273.16 K, 38115 kPa	56.3338 ± 0.042 kg/m3
273.16 K, 38116 kPa	56.335 ± 0.042 kg/m3 and 56.3346 ± 0.042 kg/m3
293.15 K, 980.1 kPa	1.6025 ± 0.0026 kg/m3
293.15 K, 980.2 kPa	1.6025 ± 0.0026 kg/m3 and 1.6026 ± 0.0026 kg/m3
293.15 K, 1731.6 kPa	2.8204 ± 0.003 kg/m3 and 2.8205 ± 0.003 kg/m3 and 2.8207 ± 0.003 kg/m3
293.15 K, 3908.9 kPa	6.3007 ± 0.0033 kg/m3 [middle of 5 runs]
293.15 K, 4006.9 kPa	6.4542 ± 0.0034 kg/m3
293.15 K, 4007 kPa	6.4541 ± 0.0034 kg/m3 and 6.4543 ± 0.0034 kg/m3 and 6.4542 ± 0.0034 kg/m3
293.15 K, 7058 kPa	11.2086 ± 0.0084 kg/m3
293.15 K, 7058.1 kPa	11.2089 ± 0.0084 kg/m3 and 11.2088 ± 0.0084 kg/m3
293.15 K, 7058.2 kPa	11.2089 ± 0.0084 kg/m3
293.15 K, 7881.3 kPa	12.4696 ± 0.0083 kg/m3
293.15 K, 7881.6 kPa	12.4701 ± 0.0083 kg/m3
293.15 K, 7882.1 kPa	12.4707 ± 0.0083 kg/m3
293.15 K, 7882.6 kPa	12.4715 ± 0.0083 kg/m3
293.15 K, 7883 kPa	12.4722 ± 0.0083 kg/m3
293.15 K, 10034 kPa	15.7199 ± 0.0091 kg/m3
293.15 K, 10035 kPa	15.7202 ± 0.0091 kg/m3 and 15.7205 ± 0.0091 kg/m3
293.15 K, 11762 kPa	18.2837 ± 0.0097 kg/m3 [middle of 5 runs]
293.15 K, 14018 kPa	21.5714 ± 0.011 kg/m3 [middle of 8 runs]
293.15 K, 16004 kPa	24.4152 ± 0.012 kg/m3
293.15 K, 16005 kPa	24.4156 ± 0.012 kg/m3 [middle of 4 runs]
293.15 K, 18018 kPa	27.2473 ± 0.014 kg/m3 and 27.2468 ± 0.014 kg/m3 and 27.2464 ± 0.014 kg/m3
293.15 K, 18019 kPa	27.2479 ± 0.014 kg/m3 [middle of 5 runs]
293.15 K, 19905 kPa	29.8586 ± 0.015 kg/m3 and 29.8588 ± 0.015 kg/m3
293.15 K, 19906 kPa	29.8595 ± 0.015 kg/m3 and 29.8599 ± 0.015 kg/m3 and 29.8592 ± 0.015 kg/m3
293.15 K, 24474 kPa	36.0124 ± 0.02 kg/m3 [middle of 4 runs]
293.15 K, 24475 kPa	36.0141 ± 0.02 kg/m3 and 36.0137 ± 0.02 kg/m3
293.15 K, 24476 kPa	36.0152 ± 0.02 kg/m3
293.15 K, 25777 kPa	37.7285 ± 0.021 kg/m3
293.15 K, 25778 kPa	37.7301 ± 0.021 kg/m3 and 37.7298 ± 0.021 kg/m3 and 37.7293 ± 0.021 kg/m3
293.15 K, 25779 kPa	37.7309 ± 0.021 kg/m3
293.15 K, 29507 kPa	42.5361 ± 0.026 kg/m3
293.15 K, 29508 kPa	42.5375 ± 0.026 kg/m3 and 42.5373 ± 0.026 kg/m3
293.15 K, 29509 kPa	42.5383 ± 0.026 kg/m3
293.15 K, 29510 kPa	42.5393 ± 0.026 kg/m3 and 42.5394 ± 0.026 kg/m3
293.15 K, 29511 kPa	42.5405 ± 0.026 kg/m3
293.15 K, 31846 kPa	45.4829 ± 0.029 kg/m3
293.15 K, 31847 kPa	45.4837 ± 0.029 kg/m3
293.15 K, 31848 kPa	45.4862 ± 0.029 kg/m3 and 45.4845 ± 0.029 kg/m3
293.15 K, 31850 kPa	45.4879 ± 0.029 kg/m3
293.15 K, 38003 kPa	52.9909 ± 0.038 kg/m3
293.15 K, 38004 kPa	52.9921 ± 0.038 kg/m3
293.15 K, 38005 kPa	52.993 ± 0.038 kg/m3
293.15 K, 38006 kPa	52.9944 ± 0.038 kg/m3
293.15 K, 38007 kPa	52.9958 ± 0.038 kg/m3
293.16 K, 10034 kPa	15.7195 ± 0.0091 kg/m3
323.15 K, 1780.1 kPa	2.6324 ± 0.0029 kg/m3 and 2.6323 ± 0.0029 kg/m3 and 2.6322 ± 0.0029 kg/m3
323.15 K, 1780.2 kPa	2.6323 ± 0.0029 kg/m3
323.15 K, 3959.1 kPa	5.7989 ± 0.0032 kg/m3 and 5.7987 ± 0.0032 kg/m3
323.15 K, 7974.3 kPa	11.4834 ± 0.0077 kg/m3 and 11.4836 ± 0.0077 kg/m3
323.15 K, 7974.4 kPa	11.4837 ± 0.0077 kg/m3 and 11.4836 ± 0.0077 kg/m3
323.15 K, 11648 kPa	16.5228 ± 0.0089 kg/m3 [middle of 5 runs]
323.15 K, 15081 kPa	21.0997 ± 0.01 kg/m3
323.15 K, 15082 kPa	21.1007 ± 0.01 kg/m3 and 21.1001 ± 0.01 kg/m3 and 21.1 ± 0.01 kg/m3
323.15 K, 19305 kPa	26.565 ± 0.013 kg/m3 and 26.5643 ± 0.013 kg/m3 and 26.5647 ± 0.013 kg/m3
323.15 K, 19306 kPa	26.5662 ± 0.013 kg/m3 and 26.5653 ± 0.013 kg/m3
323.15 K, 25679 kPa	34.4876 ± 0.019 kg/m3 and 34.4883 ± 0.019 kg/m3
323.15 K, 25680 kPa	34.4886 ± 0.019 kg/m3 and 34.489 ± 0.019 kg/m3 and 34.4895 ± 0.019 kg/m3
323.15 K, 31795 kPa	41.7513 ± 0.025 kg/m3 and 41.752 ± 0.025 kg/m3
323.15 K, 31796 kPa	41.7528 ± 0.025 kg/m3
323.15 K, 31797 kPa	41.7536 ± 0.025 kg/m3 and 41.7543 ± 0.025 kg/m3
323.15 K, 37888 kPa	48.6852 ± 0.033 kg/m3
323.15 K, 37889 kPa	48.6863 ± 0.033 kg/m3
323.15 K, 37890 kPa	48.6876 ± 0.033 kg/m3
323.15 K, 37891 kPa	48.6888 ± 0.033 kg/m3
323.15 K, 37892 kPa	48.6904 ± 0.033 kg/m3
